Two compounds from patent publication US9572760B2, “Uses of compounds and mixtures from Antrodia cinnamomea mycelia” (Simpson Biotech Co., Ltd., priority 2013, dated 2017) can be followed below.

The test system of assay [1] is HSC. Description: HSC proliferation by BrdU assay. Format: cell-based. Particulars: highest concentration (80 μM), 72 hours. The procedure:
The Cell Proliferation ELISA, BrdU kit was designed to quantitate cell proliferation bases on the measurement of BrdU incorporation during DNA synthesis in proliferation cells. Briefly, cells (1×10^4 cells/well) were seeded in 100 μl medium in a 96-well plate (Nunc, Denmark) and cultured for 24 h to allow the cells to attach and then treated with three different concentrations ([…]) of either Compound A, B, C and D for 24 h, 48 h and 72 h and the plates were incubated in 37° C. After incubation, the culture medium was labeled with 10 μl/well BrdU (Roche Diagnostic Inc.), and the cells were reincubated for addition 16 h at 37° C. Labeling medium was removed using 10 min centrifuge at 200×g and blow dried. Cells were fixed using 200 μl FixDenat solution and incubated for 30 min at room temperature. Removing the FixDenat solution, 100 μl of anti-BrdU-POD was added and incubated for 90 min at room temperature. After the incubation period, microplates were washed three times with PBS buffer and 100 μl substrate solution was added and incubated for 30 min. Stop solution was added (25 μl of 1 M H2SO4) and absorbance of the samples was measured using ELISA reader at 450 nm.
In general terms: Uptake of a labelled nucleoside into DNA is a usual measure of proliferation.

Another assay has as its system B16F10 cells. Nature of the assay: Melanin content in B16F10 cells after UV irradiation. It counts as cell-based, murine. Particulars: 10 μM for 72 hrs prior to UV irradiation; UV alone 33.80±4.6% increase over non-UV cells (7.4±0.3 μg/mg protein). The source says: (§1) The dermal fibroblast cell line CG1639 was obtained from the BCRC (Bioresource Collection and Research Center) and cultured in Dulbecco's modified Eagle media (DMEM, Gibco by Invitrogen) with 1% antibiotic antimycotic (Gibco by Invitrogen) and 15% fetal bovine serum (Gibco by Invitrogen). The fetal rat skin keratinocyte, FRSK cell line was obtained from the Japan HSRRB (Health Science Research Resources Bank) and cultured in Eagle's minimal essential media (MEM, Gibco by Invitrogen) supplemented with 10% fetal bovine serum (FBS) (Gibco by Invitrogen) and 1% antibiotic antimycotic (Gibco by Invitrogen). B16F10 cells, a murine melanoma cell line, were purchased from American Type Culture Collection (ATCC, Rockville, Md., USA) and was cultured in Eagle's Minimum Essential Medium (MEM; Sigma, St. Louis, Mo.) supplemented with 10% fetal bovine serum (FBS; HyClone Lab. Inc., Logan, Utah), 0.02% antibiotic-antimycotic liquid (penicillin, 10 000 U mL^−1; streptomycin, 10 000 μg mL^−1 and amphotericin B, 25 μg mL^−1; Invitrogen, Carlsbad, Calif.).
(§2) To investigate the induction of melanogenesis and the oxidative stress by direct UV irradiation, melanoma cells and keratocytes were irradiated with 8 J cm^−2 of UVA (FL15BLB, 352 nm, 15 W; Toshiba, Tokyo, Japan) and 10 mJ cm^−2 of UVB (G15T8E, 306 nm, 15 W; Sankyo Denki, Tokyo, Japan) in a HANKS' balanced salt solution (Sigma). The UV intensity was measured by using a Model UVX Digital Radiometer (UVP Inc., Upland, Calif.).
(§3) B16F10 and FRSK cells were exposed to Hepasim compounds A-D by two different concentrations (3 or 10 μM) for 72 hrs prior to UVA irradiation. DMEM was replaced with phosphate buffered saline (PBS) to avoid generation of medium-derived toxic photoproducts prior to UV irradiation. Cells were collected 24 hrs after UVA irradiation and assayed. For preparation of cell lysate, the harvested cells were pelleted by centrifugation and lysed in lysis buffer containing 50 mM Tris-HCl, 10 mM ethylene diaminetetraacetic acid (EDTA), 1% (v/v) Tri-ton X-100, phenylmethylsulfonyl fluoride (PMSF) (100 mg/ml) and pepstatin A (1 mg/ml) in DMSO and leupeptin (1 mg/ml) in H2O, pH 6.8. The cells were centrifuged at 10,000 rpm for 10 min and the total cell lysate was collected and stored at −80° C.
In order to measure the melanin contents, B16F10 cells were sonicated on ice and the mixture was centrifuged (25 000 g, 10 min, 4° C.). The supernatant was transferred, and pellets were dissolved in 0.85 N KOH at 60° C. for 20 min. Standard melanin (Sigma) was incubated in parallel. Spectrophotometric analysis of melanin content was then performed at an absorbance of 405 nm

Assay [2] deals with HSC. Nature of the assay: HSC apoptosis by cell death detection ELISA. It counts as cell-based. Particulars: highest concentration (80 μM), 72 hours. The procedure: Apoptosis was detected with a sandwich immunoassay system using a cell death detection ELISA kit (Roche Diagnostic Inc.). Roche's Cell Death Detection ELISA kit qualitatively and quantitatively detects the amount of cleaved DNA/histone complexes (nucleosomes) in a given sample using a sandwich-enzyme-immunoassay-based method. The cells (1×10^4 cells/well) were seeded in 100 μl medium in a 96-well plate (Nunc, Denmark) and cultured for 24 h to allow the cells to attach and then treated with three different concentrations (8 μM, 24 μM and 80 μM) of either Compound A, B, C and D for 24 h, 48 h and 72 h and the plates were incubated in 37° C. After incubation, the 96 well plates were centrifuged for 10 min at 200×g and removed supernatant and discard, then added 200 μl of lysis buffer per well using multipipetman and incubated 30 min at room temperature, microplates were centrifuged the lysate at 200×g for 10 min. After the centrifuge, 20 μl of the supernatant was transferred into the streptavidin-coated microplate, then added 80 μl of immunoreagent to each well. The microplate was covered with an adhesive foil and incubated on a shaker under gentle shaking for 2 hour at room temperature. After the incubation period, microplates were washed three times with 250-300 μl incubation buffer and 100 μl ABTS solution was added and incubated for 30 min or until color is sufficient for photometric. ABTS Stop solution was added and absorbance of the samples was measured using ELISA reader at 405 nm, reference wavelength at 490 nm.
Background: An ELISA detects its analyte on a solid surface through an enzyme-linked reagent.

The next assay deals with T1, tyrosinase (Mus musculus, UniProt P11344).
T1 construct: endogenous in cells; host or cells: B16F10 murine melanoma cells (ATCC), total cell lysate
T1 sequence (P11344 19-533): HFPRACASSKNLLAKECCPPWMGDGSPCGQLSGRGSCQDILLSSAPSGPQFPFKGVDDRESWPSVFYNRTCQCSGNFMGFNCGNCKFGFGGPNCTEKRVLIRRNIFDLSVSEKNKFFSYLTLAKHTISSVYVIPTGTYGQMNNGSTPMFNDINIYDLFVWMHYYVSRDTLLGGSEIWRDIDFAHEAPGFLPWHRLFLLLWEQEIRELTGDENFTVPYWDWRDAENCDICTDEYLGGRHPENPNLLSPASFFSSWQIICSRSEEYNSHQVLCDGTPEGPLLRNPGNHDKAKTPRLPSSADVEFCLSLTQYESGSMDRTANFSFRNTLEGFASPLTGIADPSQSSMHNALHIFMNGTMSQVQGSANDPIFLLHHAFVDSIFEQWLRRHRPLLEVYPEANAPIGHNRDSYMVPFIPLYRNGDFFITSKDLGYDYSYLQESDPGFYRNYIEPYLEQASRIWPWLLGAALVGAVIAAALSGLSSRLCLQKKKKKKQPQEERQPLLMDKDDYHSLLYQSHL
Nature of the assay: Cellular tyrosinase activity assay (L-DOPA oxidation) in B16F10 cells exposed to UV. It counts as cell-based, murine. The following applies: UV alone 52.55±4.36% increase over non-UV control (3.0±0.5 U/mg protein).
Source text: as §1, §2, §3
The rate of L-DOPA oxidation was measured to assess cellular tyrosinase activity in B16F10 cells exposed to UV. The assay was performed as below described, 20 mM L-DOPA used as the substrates was added to each lysate in a 96-well plate and absorbance of dopachrome formation was measured spectrophotometrically at 475 nm every 10 min for 1 h at 37° C. by a spectrophotometer. The tyrosinase activity was calculated by comparison to a standard curve using tyrosinase (2034 U/mg) and was expressed as unit/mg protein. The data are expressed as a percentage of the tyrosinase activity (unit/mg protein) of non-irradiated and untreated control cells (100%).

On to `CC(C)=CCOc1ccc([C@H]2C(=O)N(O)C(=O)[C@@H]2CC(C)C)cc1` (relative stereo) [Compound D, (3R*,4S*)-1-hydroxy-3-isobutyl-4-[4-(3-methyl-2-butenyloxy)phenyl]pyrrolidine-2,5-dione], for which the “HSC proliferation (BrdU assay)” value in the assay on HSC [1] is “same but delayed”. Besides, the “melanin production in UV-irradiated B16F10 cells” value in the assay on B16F10 cells was found to be 26.32±2.3%. Besides, in the assay with HSC [2], the “apoptosis of HSC (cell death detection assay)” value is on record as “same but delayed”. In addition, the “tyrosinase activity in UV-irradiated B16F10 cells” value on tyrosinase (3 μM) was found to be 38.5±4.5%; on tyrosinase (10 μM) it was 29.25±2.6%.
`CC(C)=CCOc1ccc(C2=C(CC(C)C)C(=O)OC2=O)cc1` [Compound A, 3-isobutyl-4-[4-(3-methyl-2-butenyloxy)phenyl]furan-2,5-dione]: in the assay on B16F10 cells, the “melanin production in UV-irradiated B16F10 cells” value is given as 23.25±5.5%. For the same compound, the “tyrosinase activity in UV-irradiated B16F10 cells” value on tyrosinase (3 μM) was found to be 43.50±3.5%; at tyrosinase (10 μM), 26.75±2.3%.
